Data set [1] deals with A/PR/8/34 strain influenza virus. Briefly: microbe, parasite or virus in culture. The data set is classed as cell-based, influenza virus A/PR/8/34. The following applies: for inhibition at 10 µM: unidentified influenza virus, PR/8, MDCK, 72 h, read-out: Virus growth inhibition (%).
Data set [2] shares this test system. Briefly: microbe, parasite or virus in culture. The data set is classed as cell-based, influenza virus A/PR/8/34. To be noted: for EC50: unidentified influenza virus, PR/8, MDCK, 72 h, read-out: ED50 (concentration at which the cytopathic effect derived from virus was reduced by 50% as compared with a control). For orientation: Damage to the host cells serves as the signal in cytopathic effect assays.

Data set [3] is described as follows: Cytotoxicity to uninfected MDCK cells (MTT method). The following applies: dog, mdck cells. Background: Tetrazolium dyes change colour on reduction, which living cells bring about.
Protocol: Further, in order to evaluate the cytotoxicities to the MDCK cells of the compounds of the present invention, these compounds at the same concentration were added to cells which were not infected with virus, and the survival rate after carrying out culture in the same manner was examined by the MTT method, which is also shown in Table 1.
A further data set has as its system MDCK cells. Briefly: Cytotoxicity to uninfected MDCK cells (MTT method). To be noted: 10 μM; MDCK cells.
Another data set has as its system B16 melanoma cells. Briefly: Glycolipid biosynthesis-accelerating action in B16 melanoma cells (uptake of 14C-galactose into GSL fraction). The data set is classed as cell-based. The following applies: for Uptake of 14C-galactose into GSL fraction: 24 hours, control 6,100; for Acceleration of biosynthesis of glycolipids including ganglioside (in words): Table 2. How it is done: B16 melanoma cells derived from neuroectoderm were put into a culture plate with 12 wells in an amount of 2×10^5 cells/well and cultured for 24 hours in Dulbecco modified Eagle's media containing 10% bovine fetal serum. Thereafter, the media were exchanged with the same culture broths containing 2-acylaminopropanol compounds shown in Table 2, and ^14 C-galactose was added thereto. After 24 hours, the media were removed, the cells were washed with 1 ml of a phosphate buffer containing 0.02% EDTA, 1 ml of 0.25 % trypsin was added, and the mixtures were left to stand at 37° C. for 5 minutes. The cells were recovered by using the same culture broths and washed with a phosphate buffer, and then masses of the cells were obtained. 4 ml of methanol and chloroform were added successively to the masses of the cells to extract all GSL, followed by evaporation to dryness. Next, after this all GSL was suspended in 1 ml of water, the suspensions were dialyzed to water for 2 days to completely remove low molecules such as ^14 C-galactose, etc. The radioactivities of the GSL fractions thus obtained were measured by a liquid scintillation counter. A control is a result of carrying out an experiment in the same manner by exchanging the medium with the same amount of a culture broth not containing the compound of the present invention.

The conditions of data set [4]: J. Lipid Res., Vol. 32, 713-722 (1991); cited from earlier work.
For a further data set, the system named is virus. To be noted: Seikagaku vol. 65(8), p. 695 (1993); cited from earlier work.
[5] abbreviates: 10 μM, MDCK cells, 3 days at 37° C., control 80.0.
Where [6] appears, read: Mus musculus, B16, 24 h, 10 μM, control 100, read-out: Glycolipid biosynthesis acceleration (%).

Where two headings read alike, the source gives them in different places.

As usually defined, the inhibition is how much of the control response was suppressed. For orientation: viability means a per cent measure of how many cells are alive, often set against a control. As to `CCCCCCCCCC(=O)NC(CN1CCCCC1CO)C(O)c1ccccc1` (mixture of isomers) [drawing 11 (Mixture of isomers), 2-decanoylamino-3-(2-(hydroxymethyl)-piperidino)-1-phenyl-1-propanol], the inhibition at 10 µM in data set [1] was determined as 99.7%. The “Cytopathic effect (%)” value in data set [2] (setting [5]) is 3.1%. For the same molecule, the EC50 in data set [2] worked out at 1.5 µM. Besides, the viability at 72 h, 10 µM in data set [3] fell in the range of 80 to 100%.

As for `CCCCCCCCCC(=O)N[C@@H](CN1CCCCC1)[C@H](O)c1ccccc1` (relative stereo) [drawing 8 (DL-erythro), 2-decanoylamino-1-phenyl-3-piperidino-1-propanol], in data set [1], the inhibition at 10 µM is 99.6%. Moreover, the “Cytopathic effect (%)” value in data set [2] (setting [5]) stood at 7.8%. Further, the viability at 72 h, 10 µM in data set [3] is 80 to 100%.

On to `CCCCCCCCCC(=O)N[C@H](CN1CCCCC1)[C@H](O)c1ccccc1` (relative stereo) [drawing 8 (DL-threo), 2-decanoylamino-1-phenyl-3-piperidino-1-propanol], for which the inhibition at 10 µM in data set [1] was determined as 93.9%. The “Cytopathic effect (%)” value in data set [2] (setting [5]) amounted to 40.0%. The molecule also showed a viability at 72 h, 10 µM in data set [3] of 80 to 100%.

In the case of `CCCCCCCCCC(=O)N[C@@H](CN1CCC(O)CC1)[C@H](O)c1ccccc1` (relative stereo) [drawing 9 (DL-erythro), 2-decanoylamino-3-(4-hydroxypiperidino)-1-phenyl-1-propanol], in data set [1], the “Suppression of growth of influenza virus (in words)” value is reported as “completely suppressed growth of influenza virus” and the inhibition at 10 µM was found to be 100%. In addition, in data set [2], the “Cytopathic effect (%)” value is 0% and the EC50 turned out to be 5 µM. Moreover, the “Cytotoxicity (in words)” value in the data set with MDCK cells is “cytotoxicity at this concentration was not observed at all”. The same molecule returned a viability at 72 h, 10 µM in data set [3] of 100%.

As for `CCCCCCCCCC(=O)N[C@H](CN1CCC(O)CC1)[C@H](O)c1ccccc1` (relative stereo) [drawing 9 (DL-threo), 2-decanoylamino-3-(4-hydroxypiperidino)-1-phenyl-1-propanol], the inhibition at 10 µM in data set [1] worked out at 87.3%. In data set [2] (setting [5]), the “Cytopathic effect (%)” value is listed as 14.2%. Besides, the EC50 in data set [2] was 5.4 µM. Further, the viability at 72 h, 10 µM in data set [3] turned out to be 100%.

Consider `CCCCCCCCCC(=O)N[C@@H](CN(CC)CC)[C@H](O)c1ccccc1` (relative stereo) [drawing 10 (DL-erythro), 2-decanoylamino-3-diethylamino-1-phenyl-1-propanol], for which the inhibition at 10 µM in data set [1] stood at 88.5%. The “Cytopathic effect (%)” value in data set [2] (setting [5]) was 9.9%. In addition, the EC50 in data set [2] is 1.5 µM. Besides, in data set [3], the viability at 72 h, 10 µM was determined as 100%.

On to `CCCCCCCCCC(=O)N[C@@H](CN1CCN(C)CC1)[C@@H](O)c1ccccc1` [Compound 2], for which the “Uptake of 14C-galactose into GSL fraction” value in the data set with B16 melanoma cells (10 μM) was 10,300 cpm/mg protein. Besides, the activity at 10 µM in the data set on B16 melanoma cells (setting [6]) came to 169%. Besides, in the data set on B16 melanoma cells, the “Acceleration of biosynthesis of glycolipids including ganglioside (in words)” value (“Acceleration” below) is “significantly accelerate biosynthesis of glycolipids including ganglioside”.

Take `CCCCCCCCCC(=O)N[C@@H](CN1CCC(O)C1)[C@@H](O)c1ccccc1` (some centres unmarked) [Compound 3]: the “Uptake of 14C-galactose into GSL fraction” value in the data set with B16 melanoma cells (10 μM) was 9,380 cpm/mg protein. In the data set on B16 melanoma cells (setting [6]), the activity at 10 µM was 161%. Also, the “Acceleration” value with B16 melanoma cells was “significantly accelerate biosynthesis of glycolipids including ganglioside”.

In the case of `CCCCCCCCCC(=O)N[C@@H](CNC1CCC(O)CC1)[C@@H](O)c1ccccc1` (some centres unmarked) [Compound 4], the “Uptake of 14C-galactose into GSL fraction” value in the data set on B16 melanoma cells (5 μM) was 9,740 cpm/mg protein. In addition, in the data set with B16 melanoma cells (Mus musculus, B16, 24 h, 5 μM, control 100, read-out: Glycolipid biosynthesis acceleration (%)), the activity at 5 µM was determined as 160%. The “Acceleration” value with B16 melanoma cells is “significantly accelerate biosynthesis of glycolipids including ganglioside”.

As for `CCCCCCCCCC(=O)N[C@H](CN1CCOCC1)[C@H](O)c1ccccc1` [D-threo-PDMP, reference compound], in data set [1], the inhibition at 10 µM was found to be 97.1%. Moreover, the “Cytopathic effect (%)” value in data set [2] is reported as 44.8%. Moreover, the viability at 72 h, 10 µM in data set [3] lay in the range of 60 to 80%.

As for `CCCCCCCCCC(=O)NC(CN1CCOCC1)C(O)c1ccccc1` (centres unmarked) [PDMP, 1-phenyl-2-decanoylamino-3-morpholino-1-propanol], the “Passing a blood-brain barrier (in words)” value in data set [4] was “can pass a blood-brain barrier”. Besides, the “Antiviral activity (in words)” value in the data set on virus is listed as “has an antiviral activity”.

For `CCCCCCCCCC(=O)N[C@@H](CN1CCC(O)CC1)[C@H](O)c1ccccc1` [drawing 13 (D-erythro)], the “Uptake of 14C-galactose into GSL fraction” value in the data set on B16 melanoma cells (10 μM) is recorded as 11,470 cpm/mg protein. For the same molecule, the activity at 10 µM in the data set on B16 melanoma cells (setting [6]) was found to be 188%. Moreover, in the data set with B16 melanoma cells, the “Acceleration” value was “significantly accelerate biosynthesis of glycolipids including ganglioside”.

As to `CCCCCCCCCC(=O)N[C@@H](CN1CCC(O)CC1)[C@@H](O)c1ccccc1` [drawing 13 (L-threo)], the “Uptake of 14C-galactose into GSL fraction” value with B16 melanoma cells (10 μM) is recorded as 9,670 cpm/mg protein. In the data set on B16 melanoma cells (setting [6]), the activity at 10 µM was found to be 159%. The “Acceleration” value in the data set with B16 melanoma cells is listed as “significantly accelerate biosynthesis of glycolipids including ganglioside”.

(Values after US5763438A, “2-acylaminopropanol compound and medical composition” (Seikagaku Corporation, priority 1994, dated 1998).)
